From the supplement of paper PMC10307832

Columns and labels:
Assay in all cases: relative viability (nuclei count vs DMSO), 5 days (fraction); higher = more cells survive
[1] = compound: C1=CC(=CC=C1NC(=S)NNC2=C(C=C(C=C2[N+](=O)[O-])C(F)(F)F)[N+](=O)[O-])F [Kobe2602] + O=C(CCCCCCC(=O)Nc1ccccc1)NO [Vorinostat] (partner 1 µM)
How it was run: (§1)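 Cells from lung cancer lines were seeded into 1536-well plates and, one day later, dosed by pin tool. Treatments were either a single drug or a fixed dose of an anchor drug with five library-drug doses (not always all listed) in √10 steps. After 5 days, nuclei were stained in a one-step fixation (final 0.05% Triton X-100, 1% formaldehyde, 1 ug/ml Hoechst) and counted on 4× images, and relative viability is the treated-to-vehicle nuclei ratio, as the median of duplicate plates.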

[2] = compound: O[C@@H](COc1cccc2ncccc12)CN1CCN([C@@H]2c3ccccc3[C@@H]3[C@H](c4ccccc42)C3(F)F)CC1 [Zosuquidar] + O=C(c1cc(Cc2n[nH]c(=O)c3ccccc23)ccc1F)N1CCN(C(=O)C2CC2)CC1 [Olaparib] (partner 8 µM)
How it was run: as §1

[3] = compound: C1=CC(=CC=C1NC(=S)NNC2=C(C=C(C=C2[N+](=O)[O-])C(F)(F)F)[N+](=O)[O-])F [Kobe2602] + C[C@@H](Oc1cc(-c2cnn(C3CCNCC3)c2)cnc1N)c1c(Cl)ccc(F)c1Cl [Crizotinib] (partner 1 µM)
How it was run: as §1

[4] = compound: O[C@@H](COc1cccc2ncccc12)CN1CCN([C@@H]2c3ccccc3[C@@H]3[C@H](c4ccccc42)C3(F)F)CC1 [Zosuquidar] + CC1(C)CCC(c2ccc(Cl)cc2)=C(CN2CCN(c3ccc(C(=O)NS(=O)(=O)c4ccc(N[C@H](CCN5CCOCC5)CSc5ccccc5)c(S(=O)(=O)C(F)(F)F)c4)cc3)CC2)C1 [Navitoclax] (partner 0.5 µM)
How it was run: as §1

Cell Line	relative viability ([1]; first compound 0.2 µM)	relative viability ([1]; first compound 0.6325 µM)	relative viability ([1]; first compound 2 µM)	relative viability ([1]; first compound 6.325 µM)	relative viability ([1]; first compound 20 µM)	relative viability ([2]; first compound 0.01 µM)	relative viability ([2]; first compound 0.03162 µM)	relative viability ([2]; first compound 0.3162 µM)	relative viability ([2]; first compound 1 µM)	relative viability ([3]; first compound 0.2 µM)	relative viability ([3]; first compound 0.6325 µM)	relative viability ([3]; first compound 2 µM)	relative viability ([3]; first compound 6.325 µM)	relative viability ([3]; first compound 20 µM)	relative viability ([2]; first compound 0.1 µM)	relative viability ([4]; first compound 0.01 µM)	relative viability ([4]; first compound 0.03162 µM)	relative viability ([4]; first compound 0.1 µM)	relative viability ([4]; first compound 0.3162 µM)	relative viability ([4]; first compound 1 µM)
SW 900	0.677	0.645	0.492	0.476	0.602	0.853	0.93	1.06	0.838	–	–	–	–	–	–	–	–	–	–	–
NCI-H358	0.706	0.733	0.586	0.719	0.689	0.671	0.632	0.65	0.703	0.598	0.597	0.581	0.746	0.652	0.519	–	–	–	–	–
PC-3 [JPC-3]	0.943	1.1	0.787	0.874	0.771	1.09	1.18	1.09	1.1	0.933	1.02	0.946	0.925	0.974	0.873	0.783	0.775	0.755	0.792	0.755
NCI-H1651	0.601	0.448	0.583	0.551	0.751	0.181	0.194	0.2	0.179	0.908	0.887	0.978	0.847	0.859	0.169	0.949	0.987	1.05	0.977	1.01
HCC-827	0.891	0.739	0.804	0.892	0.945	0.688	0.567	0.65	0.622	0.925	0.921	0.903	0.91	0.859	0.518	1.04	0.991	0.991	1.02	1.03
HCC-366	0.311	0.357	0.329	0.273	0.296	0.314	0.377	0.324	0.324	0.434	0.597	0.494	0.569	0.655	0.415	0.97	1.18	1.02	1.01	1.09
HARA	0.529	0.553	0.422	0.509	0.767	1.13	0.804	0.936	0.93	1.05	1.01	1.05	1.24	0.981	0.905	1.1	1.15	1.1	1.1	1.14
NCI-H520	0.702	0.775	0.637	0.691	0.731	0.395	0.312	0.29	0.335	0.694	0.711	0.746	0.757	0.763	0.341	1.16	1.15	0.986	1.03	1.02
NCI-H1299	–	–	–	–	–	0.982	0.976	0.963	1.01	0.922	0.938	0.93	0.952	0.925	0.993	1.06	1.02	1.03	1.01	1.04
SW 1573	0.743	0.868	0.676	0.868	0.77	0.427	0.357	0.471	0.446	0.788	0.879	0.736	0.863	0.912	0.544	0.974	0.896	1.07	1.05	1.02
CAL-12T	0.828	0.831	0.769	0.851	0.706	0.739	0.715	0.793	0.706	0.604	0.569	0.618	0.641	0.549	0.741	1.38	1.35	1.17	1.45	1.2
COR-L 105	0.786	0.932	0.647	0.774	0.705	0.641	0.711	0.761	0.582	0.85	0.838	0.653	0.966	0.831	0.662	0.944	0.638	0.725	0.968	0.631
NCI-H3122	0.986	0.701	0.979	0.855	1.06	0.606	0.608	0.621	0.637	0.262	0.255	0.254	0.263	0.266	0.565	1.04	0.98	1.05	1.02	1.01
NCI-H2228	0.649	0.744	0.522	0.425	0.611	0.626	0.51	0.64	0.936	0.484	0.504	0.441	0.494	0.585	0.61	1.12	0.679	0.922	1.12	0.775
RERF-LC-KJ	0.679	0.69	0.671	0.665	0.509	0.802	0.985	1.01	0.855	0.781	0.839	0.836	0.81	0.756	0.878	0.99	0.853	0.947	1.11	0.844
NCI-H441	0.756	0.711	0.808	0.646	0.697	0.708	0.61	0.482	0.525	0.719	0.662	0.606	0.876	0.713	0.738	0.748	0.496	0.615	–	0.59
A549	–	–	–	–	–	0.301	0.379	0.371	0.35	0.759	0.723	0.781	0.764	0.8	0.306	1.16	0.892	1.16	1.23	1.24
NCI-H2342	0.713	0.789	0.761	0.716	1.17	0.459	0.544	0.501	0.439	–	–	–	–	–	0.421	–	–	–	–	–
LCLC-97TM1	0.692	0.893	–	0.964	0.722	0.307	0.453	0.335	0.515	0.405	0.336	0.242	0.372	0.282	–	0.448	0.396	–	0.496	0.412

Cell Line	relative viability ([1]; first compound 0.2 µM)	relative viability ([1]; first compound 0.6325 µM)	relative viability ([1]; first compound 2 µM)	relative viability ([1]; first compound 6.325 µM)	relative viability ([1]; first compound 20 µM)	relative viability ([2]; first compound 0.01 µM)	relative viability ([2]; first compound 0.03162 µM)	relative viability ([2]; first compound 0.3162 µM)	relative viability ([2]; first compound 1 µM)	relative viability ([3]; first compound 0.2 µM)	relative viability ([3]; first compound 0.6325 µM)	relative viability ([3]; first compound 2 µM)	relative viability ([3]; first compound 6.325 µM)	relative viability ([3]; first compound 20 µM)	relative viability ([2]; first compound 0.1 µM)	relative viability ([4]; first compound 0.01 µM)	relative viability ([4]; first compound 0.03162 µM)	relative viability ([4]; first compound 0.1 µM)	relative viability ([4]; first compound 0.3162 µM)	relative viability ([4]; first compound 1 µM)
NCI-H2087	0.628	0.799	0.64	0.714	0.568	0.586	0.557	0.578	0.539	0.671	0.766	0.922	0.786	0.802	0.603	0.968	0.994	0.965	1.18	1.08
NCI-H647	0.613	0.582	0.64	0.583	0.601	0.564	0.519	0.674	0.566	1.2	1.24	0.887	1.07	1.03	0.559	1.02	1.1	0.986	1.14	1.06
Calu-6	–	–	–	–	–	0.583	0.677	0.605	0.594	0.84	0.78	0.786	0.744	0.813	0.714	0.88	0.81	0.895	0.86	0.813
LCLC-103H	0.802	0.813	0.776	0.839	0.81	0.743	0.721	0.759	0.695	1.04	1.02	1.07	1.02	1.18	0.808	–	–	–	–	–
HCC-15	0.908	0.912	0.814	0.815	0.812	0.717	0.725	0.72	0.747	0.747	0.803	0.727	0.769	0.752	0.799	0.723	0.702	0.683	0.665	0.667
H3255	0.772	0.841	0.776	0.853	0.78	0.549	0.559	0.553	0.541	0.906	1.12	0.802	0.839	0.874	0.558	0.513	0.492	0.537	0.608	0.436
NCI-H1915	0.523	0.549	0.478	0.534	0.557	0.267	0.261	0.265	0.291	0.886	0.92	0.897	0.931	0.91	0.268	0.756	0.79	0.796	0.802	0.743
NCI-H661	0.777	0.799	0.753	0.825	0.827	0.718	0.731	0.727	0.759	0.933	–	0.971	1.06	1.1	0.737	–	–	–	–	–
NCI-H522	0.949	1.05	0.964	1	0.898	0.724	0.623	0.766	0.668	–	–	–	–	–	0.684	–	–	–	–	–
NCI-H1395	0.786	1.04	0.733	0.666	0.93	0.469	0.441	0.501	0.443	–	–	–	–	–	–	1.11	1.08	1.12	1.28	1.15
NCI-H1648	0.464	0.441	0.351	0.334	0.338	0.5	0.908	0.799	0.877	–	–	–	–	–	0.614	–	–	–	–	–
NCI-H1792	–	–	–	–	–	0.334	0.424	0.422	0.396	0.965	0.928	0.985	0.726	1.05	0.339	0.603	0.621	0.53	0.635	0.359
NCI-H1703	–	–	–	–	–	0.413	0.421	0.858	0.451	0.775	0.66	0.56	0.829	0.501	0.394	1.39	1.36	1.44	1.33	1.05
EBC-1	–	–	–	–	–	0.692	0.797	0.827	0.705	0.225	0.239	0.185	0.203	0.216	0.638	0.451	0.417	0.466	0.493	0.417
NCI-H1793	0.702	0.881	0.764	0.795	0.936	0.971	–	1.01	0.758	–	–	–	–	–	–	0.407	0.444	–	0.499	0.396
NCI-H1563	–	–	–	–	–	–	–	–	–	0.844	0.885	0.749	0.939	0.85	–	–	–	–	–	–
ABC-1	1.17	1.54	0.754	1.02	1.41	0.892	0.684	0.78	0.901	1	1.04	1.06	1.21	1.08	1.09	–	–	–	–	–
NCI-H650	0.466	0.411	0.421	0.499	0.434	0.393	0.393	0.454	0.369	0.683	0.692	0.854	0.849	0.636	0.394	–	–	–	–	–
